Measured values published in US6900242B2, “Lactone formulations and method of use” (Magnachem International Laboratories, Inc., priority 2001, dated 2005).
≈ marks a conversion by molar mass, not a printed value.

What was measured:
[1] = test system: Staphyloccus aureus ATCC 12598; experiment: Anti-bacterial activity, sensitivity disc zone of inhibition; format: cell-based, Staphylococcus aureus; conditions: for zone of inhibition: St. a
Description: (§1) The material obtained in Example 1 was screened for antibiotic activity against Staphylococcus aureus, Pseudomonas aeroginosa, Escherichia coli, and Klebsiella pneumoniae. • Solvent: Buffer Phosphate 0.1 N, pH=8.0 • Antibiotic: LMSV-6 (Pure, Securolide) • Medium coat: 2 mL/100 mL • Inoculum: 4 mL/Petri Dish Preparation of Culture Medium: [table] Microorganisms used were standardized by American Type Culture Collection (ATCC), used in first generation: • E. coli ATCC 352 18, Lot 202602, Exp. 05/2000 (19-258) • *Kleb. Klebsiela pneumoniae, ATCC 13882, Lot 202 174, Exp 02/2000 (19-152) • *Ps. A Pseudomona aeroginosa ATCC 27853, Lot 202992, Exp 08/2000 (19-060) • *St. A Staphyloccus aureus ATCC 12598, Lot 202564, Exp 05/2000 (19-137) • **Str. P Streptoccus pyogenes, ATCC 2 1547, Lote 202691, Exp 06/2000 (19-190) • *=Atmospheric oxygen, Temp=35±2° C. • **=Atmopheric CO2, Temp=35±2° C.

[2] = test system: E. coli ATCC 352 18; experiment: as above; format: cell-based, Escherichia coli; conditions: for zone of inhibition: E. coli
Description: as §1

[3] = test system: Klebsiela pneumoniae, ATCC 13882; experiment: as above; format: cell-based, Klebsiella pneumoniae; conditions: for zone of inhibition: Kleb
Description: as §1

[4] = test system: Pseudomona aeroginosa ATCC 27853; experiment: as above; format: cell-based, Pseudomonas aeroginosa; conditions: for zone of inhibition: Ps. A
Description: as §1

[5] = test system: bacterial infection; experiment: In vivo treatment of bacterial infection, rats infected in surgery; conditions: doses calculated by comparison with ceftriaxone
[6] = test system: Candida albicans; experiment: Candida albicans MIC / minimal fungicidal concentration assays; format: cell-based; conditions: concomitant assays
Description: Candida albicans cells were prepared as indicated in the J. Antimicrobial Chemotherapy 38, 579-587, and were washed 3 times with a 0.1 M phosphate solution and used immediately to determine the minimal inhibitory concentration (MIC). The MICs were determined by modification of a microtitre plate according to the standard method of the laboratory clinical standards of the Comite National. RPMI-1640, and L-glutamine buffered at pH 7 with a 0.15 M solution of MOPS (3-[N-morpholino]propane sulfonic acid). Candida albicans cells (1.5×10^3 cells/ml) were added to the wells of a 96-well plate containing RPMI-1640 and dilutions of antifungal agents. The results were read 48 hours after incubation at 35° C. and the MIC or the minimal inhibitory concentration which inhibited the growth of the Candida albicans cells was determined. After reading the MIC at 48 hours, the plates were shaken and 10 μl of well aliquot was removed from the wells which was placed on rectangular disks containing dextrose sugar. The plates were incubated for 48 hours at 35° C. and the minimal fungicidal concentration and the concentration of the antifungal agent at which there were no number of colony forming units.

[7] = test system: Staphylococcus aureus, Pseudomonas aeroginosa, Escherichia coli, and Klebsiella pneumoniae; experiment: Anti-bacterial activity of LMSV-6 dilutions (text summary, whole panel); format: cell-based; conditions: dilutions 10, 20, 30 and 40 microliters/10 mL of LMSV-6 in Tween 60-2%
Description: The material obtained in Example 1 was screened for antibiotic activity against Staphylococcus aureus, Pseudomonas aeroginosa, Escherichia coli, and Klebsiella pneumoniae.
• Solvent: Buffer Phosphate 0.1 N, pH=8.0 • Antibiotic: LMSV-6 (Pure, Securolide) • Medium coat: 2 mL/100 mL • Inoculum: 4 mL/Petri Dish Preparation of Culture Medium: […]

[8] = test system: B. gingivalis; experiment: MIC, procedure of Walker et al; format: cell-based; conditions: Porphyromonas gingivalis
Excerpt: (§2) The minimum inhibitory concentration (MIC) needed to kill Bacteroides assaccharolyticus (Forsyth strain), determined according to the procedure of Walker et al (Antimicrobial and Chemotherapy, Vol. 16, p. 452-457, (1979), is between 6 to 60 micrograms per ml. The MIC value for B. gingivalis is 6 micrograms per ml. The MIC value for B. gracilis and Fusobacterium, other gram negative organisms is about 25 for each; and the MIC value for the gram positive organism Actinomyces viscosus is 60 for the aerobic strain and 60 for the anaerobic strain.

[9] = test system: Fusobacterium; experiment: MIC, procedure of Walker et al; format: cell-based
Excerpt: as §2

[10] = test system: B. gracilis; experiment: MIC, procedure of Walker et al; format: cell-based
Excerpt: as §2

[11] = test system: Actinomyces viscosus; experiment: MIC, procedure of Walker et al; format: cell-based
Excerpt: as §2

[12] = test system: Bacteroides assaccharolyticus (Forsyth strain); experiment: MIC, procedure of Walker et al; format: cell-based; conditions: read-out: minimum inhibitory concentration (MIC)
Excerpt: as §2

[13] = test system: HEP-2 cells (laringe carcinoma); experiment: Cytotoxic assay (MTT) in HEP-2 cells; format: cell-based; conditions: Homo sapiens, HEp-2, HEP-2 cells
Excerpt: (§3) There are a large number of biological assays that require the measurement of surviving or proliferating mammalian cells. This can be achieved by different methods, e.g. counting cells that exclude or include a dye; measuring released ^51Cr labeled protein after cell lysis; and measuring incorporation of radiactive nucleotides radiactive [^3H]thymidine) or [^125I]iododeoxyuridine) during cells proliferation.
(§4) Viable cells can be measured by using any of several staining methods, but a more accurate method is the multiwell scanning spectrophotometers (ELISA readers) which can measure large number of samples with a high degree of precision.
(§5) A colorimetric assay to detect living cells, utilizing a colorless substrate that is modified to a colored product by any living cell, but not by dead cells or tissue culture medium, was used. […] The Formazan concentration in a gradient of Securolide concentrations was measured by multiwells scanning spectrophotometer (ELISA reader). Data analysis was then used to establish the Inhibitory concentration fifty (IC50) which is a quantitative parameter of antineoplastic activity. […]
(§6) Assessment of cell growth inhibition was determined according to the methods of Skehan et aL, J. Nat. […] Optical density was measured at 570 nm. […]

[14] = test system: anaerobic gram negative organisms associated with gingivitis; experiment: Topical application to affected gingiva (gingivitis); format: in vivo; conditions: topically applied to the affected gingiva
[15] = test system: Sarcina lutea; experiment: Minimum Inhibitory Concentration, poured in plate, sensitivity disc; format: cell-based
Description: • Methodology: Poured in plate, medium Mueler Hinton pH=8 • Buffer pH=8 for ceftriaxone pattern dilution • Tween 20 at 2% for LMSV-6 (Securolide) dilution • Microorganism: Sarcina lutea • Sample(s): LMSV-6 (16.0 microliters/100 mL and 10 microliter applied to sensitivity disc). Methodology: Poured in plate, medium Mueler Hinton p&8 • Buffer pH=8 for ceftriaxone pattern dilution • Tween 20 at 2% for LMSV-6 (Securolide) dilution • Used Microorganism: Sarcina lutea • Sample(S): LMSV-6 (10 microliters/mL and 20 microliter applied to sensitivity disc) • Control Pattern (P): Ceftriaxone (disc with 10 mcg) Results: […]

[16] = test system: HELA cells (cervix carcinoma); experiment: Cytotoxic assay (MTT) in HELA cells; format: cell-based; conditions: Homo sapiens
Excerpt: as §3, §4, §5, §6

[17] = test system: H. pylori; experiment: Patient endoscopy before and after treatment, H. pylori; format: in vivo, human; conditions: patients
Excerpt: There are several methods used clinically to determine whether Helicobacter pylori is present in a human subject. These are employed for initial diagnosis of infection prior to treatment, as well as for determining the success of treatment in eradicating the organism from the patient. Endoscopy of the patient provides samples of tissue which can be cultured in a microaerophilic environment to diagnose H. pylori infection. Alternatively, the sample can be examined histologically by employing one of a number of stains such as Giemsa or hematoxylin-eosin. An urea test which takes advantage of the production of urease by H. pylori, can also be applied. This test relies on the formation of ammonia from the urea hydrolysis, which results in an observable change in pH, that is an indication of the […] of H. pylori.

[18] = disc of sensitivity 50 micrograms
[19] = disc of sensitivity 5 micrograms

C[C@@H]1O[C@@H]1P(=O)(O)O [osf, Fosfomicina, reference compound]
zone of inhibition [1, 18]: 18 mm
zone of inhibition [2, 18]: 10 mm
zone of inhibition [3, 18]: 22 mm
zone of inhibition [4, 18]: 6 mm

C=C1CCOC1=O [LMSV-6]
treatment of bacterial infection [5]: successfully treated
activity against Candida albicans [6]: high activity
inhibition of bacterial growth [7]: did not exhibit inhibition of bacterial growth
MIC [8]: 6 µg/mL (≈ 61.2 µM)
MIC value [9]: about 25
MIC value [10]: about 25
MIC value ([11]; aerobic strain): 60 µg/mL (≈ 612 µM)
MIC value ([11]; anaerobic strain): 60 µg/mL (≈ 612 µM)
MIC [12]: 6 to 60 µg/mL (≈ 61.2 to 612 µM)
zone of inhibition ([1]; LMSV-6 (puro)): 30 mm
inhibition of growth ([1]; Staphyloccus aureus, 5 microliters): inhibits growth
zone of inhibition ([2]; LMSV-6 (puro)): 30 (mm)
inhibition of growth ([2]; Escherichia coli, 5 microliters): inhibits growth
zone of inhibition ([3]; LMSV-6 (puro)): 40 mm
inhibition of growth ([3]; Klebsiela pneumonae, 5 microliters): inhibits growth
IC50 ([13]; population of 10^5 Cells/mL): 10.4 µg/mL (≈ 106 µM)
IC50 ([13]; population of 10^6 Cells/mL): 37.4 µg/mL (≈ 381 µM)
effect against gingivitis organisms [14]: selectively effective
inhibition (zone) ([15]; 0.2 microliters of LMSV-6): 3.3 mm
ZONE OF INHIBITION ([15]; applied volume to disc 1.6 microliters): 20.0 mm
ZONE OF INHIBITION ([15]; applied volume to disc 5 microliters): 42.0 mm
Minimum Inhibitory Concentration (MIC) ([15]; approximate): ~0.2 µL
IC50 ([16]; population of 10^5 Cells/mL): 7.37 µg/mL (≈ 75.1 µM)
IC50 ([16]; population of 10^6 Cells/mL): 27.3 µg/mL (≈ 278 µM)
zone of inhibition ([4]; LMSV-6 (puro)): 30 mm
inhibition of growth ([4]; Pseudomonas aeroginosa, 5 microliters): inhibits growth
H. pylori by endoscopy before and after treatment [17]: decrease or absence of H. pylori

O=C(O)c1cn(C2CC2)c2cc(N3CCNCC3)c(F)cc2c1=O [Ciprof, Ciprofloxacina, reference compound]
zone of inhibition [1, 19]: 20 mm
zone of inhibition [2, 19]: 28 mm
zone of inhibition [3, 19]: 26 mm
zone of inhibition [4, 19]: 12 mm
